Reference: publication PMC5908784, “Extracellular loops 2 and 3 of the calcitonin receptor selectively modify agonist binding and efficacy” (Biochemical Pharmacology, 2018)
Changes are numbered by the printed parent chain. pKi: −log10 of the molar value. Where a SMILES comes first, the peptide text is derived from it. Bridges are numbered along the chain shown (N, C = ends).

Legend:
Assay in all cases: Heterologous whole cell competition binding
Settings in all cases: heterologous competition of 125I-sCT(8-32), whole cells, mean ± S.E.M., SEM
hCTR L368A = molecular target: T1, hCTR L368A (Homo sapiens, UniProt P30988, L368A)
T1 construct: c-Myc (N); expressed in transfected cells
T1 sequence (P30988 25-474 L368A): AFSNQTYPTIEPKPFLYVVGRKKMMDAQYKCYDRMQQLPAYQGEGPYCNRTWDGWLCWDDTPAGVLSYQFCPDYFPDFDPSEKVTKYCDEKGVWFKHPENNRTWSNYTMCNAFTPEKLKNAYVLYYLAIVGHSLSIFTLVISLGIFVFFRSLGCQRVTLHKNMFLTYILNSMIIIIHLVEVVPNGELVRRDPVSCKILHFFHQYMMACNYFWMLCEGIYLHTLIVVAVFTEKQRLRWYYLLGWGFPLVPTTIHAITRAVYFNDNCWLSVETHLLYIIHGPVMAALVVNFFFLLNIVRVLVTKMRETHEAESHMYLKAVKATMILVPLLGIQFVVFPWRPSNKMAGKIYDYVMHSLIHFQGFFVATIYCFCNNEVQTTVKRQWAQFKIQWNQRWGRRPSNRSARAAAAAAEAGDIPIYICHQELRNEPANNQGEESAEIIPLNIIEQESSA
Outline: (§1)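 Reported pKi values come from whole-cell displacement of a radiolabelled tracer, incubated overnight and quantified by gamma counting after washing out free ligand, with correction for tracer occupancy (Cheng-Prusoff).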

hCTR E294A = molecular target: T2, hCTR E294A (Homo sapiens, UniProt P30988, E294A)
T2 construct: c-Myc (N); expressed in transfected cells
T2 sequence (P30988 25-474 E294A): T1 sequence (P30988 25-474 L368A) with E270A, A344L
Outline: as §1

hCTR L298A = molecular target: T3, hCTR L298A (Homo sapiens, UniProt P30988, L298A)
T3 construct: c-Myc (N); expressed in transfected cells
T3 sequence (P30988 25-474 L298A): T1 sequence (P30988 25-474 L368A) with L274A, A344L
Outline: as §1

hCTR K366A = molecular target: T4, hCTR K366A (Homo sapiens, UniProt P30988, K366A)
T4 construct: c-Myc (N); expressed in transfected cells
T4 sequence (P30988 25-474 K366A): T1 sequence (P30988 25-474 L368A) with K342A, A344L
Outline: as §1

hCTR F356A = molecular target: T5, hCTR F356A (Homo sapiens, UniProt P30988, F356A)
T5 construct: c-Myc (N); expressed in transfected cells
T5 sequence (P30988 25-474 F356A): T1 sequence (P30988 25-474 L368A) with F332A, A344L
Outline: as §1

pKi (hCTR L368A): 8.07 | pKi (hCTR E294A): 7.93 | pKi (hCTR L298A): 7.69 | pKi (hCTR K366A): 7.96 | pKi (hCTR F356A): 7.92
Structure (SMILES): CSCC[C@H](NC(=O)CNC(=O)[C@H](CO)NC(=O)[C@H](Cc1ccccc1)NC(=O)[C@H](CCCNC(=N)N)NC(=O)[C@H](Cc1c[nH]cn1)NC(=O)[C@H](Cc1ccccc1)NC(=O)[C@H](CC(N)=O)NC(=O)[C@H](CC(N)=O)NC(=O)[C@H](CC(C)C)NC(=O)[C@H](CC(N)=O)NC(=O)[C@H](CCCNC(=N)N)NC(=O)[C@H](Cc1c[nH]c2ccccc12)NC(=O)[C@H](Cc1ccc(O)cc1)NC(=O)[C@H](C)NC(=O)[C@H](CO)NC(=O)[C@H](CC(C)C)NC(=O)[C@@H](NC(=O)[C@@H]1CSSC[C@H](N)C(=O)N[C@@H](CO)C(=O)N[C@@H](CC(N)=O)C(=O)N[C@@H](CC(C)C)C(=O)N[C@@H](CO)C(=O)N[C@@H]([C@@H](C)O)C(=O)N1)C(C)C)C(=O)NCC(=O)N[C@@H](Cc1ccccc1)C(=O)NCC(=O)N1CCC[C@H]1C(=O)N[C@@H](CCC(=O)O)C(=O)N[C@H](C(=O)N1CCC[C@H]1C(N)=O)[C@@H](C)O [pCT] (H-CSNLSTCVLSAYWRNLNNFHRFSGMGFGPETP-NH2; disulfide 1-7)
